The values that follow are results of earlier work, collected in patent US7666888B2, “Substituted azole aromatic heterocycles as inhibitors of 11β-HSD-1” (Amgen Inc., priority 2006, dated 2010).

One data set relates to bone nodule formation. To be noted: glucocorticoid effect.
Another data set deals with normal subjects. As to conditions: ingestion.

For `CC1(C)[C@@H](OC(=O)CCC(=O)O)CC[C@]2(C)[C@H]3C(=O)C=C4[C@@H]5C[C@@](C)(C(=O)O)CC[C@]5(C)CC[C@@]4(C)[C@]3(C)CC[C@@H]12` [carbenoxolone], in the data set on bone nodule formation, the “negative effect on bone nodule formation” value is on record as “blocked”. The “reduce the intraocular pressure” value with normal subjects was 20%. The Hepatic insulin sensitivity entry with healthy human volunteers was “improved”.
